The values below come from patent publication US20230257396A1, “MACROCYCLES AND THEIR USE” (BLOSSOMHILL THERAPEUTICS, INC., priority 2020, published 2023).

Assay in all cases: KINOMEscan kinase binding assay (Eurofins/DiscoveRx), % Ctrl
Assay [1] has as its target T1, kinases (Homo sapiens, UniProt P10721, D816H).
T1 construct: purchased Eurofins/DiscoveRx; host or cells: E. coli BL21-derived host (T7 phage display) for most kinases; HEK-293 for the rest
The procedure, abridged:
(§1)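 Competition binding, 1 h RT: phage-tagged or HEK-293-expressed DNA-tagged kinase + immobilized ligand + compound. Eluate kinase by qPCR. % Ctrl = (test − positive ctrl)/(negative ctrl − positive ctrl) × 100; lower means stronger binding.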

Assay [2] has as its target T2, kinases (Homo sapiens, UniProt P00533, L858R/T790M).
T2 construct: purchased Eurofins/DiscoveRx; host or cells: E. coli BL21-derived host (T7 phage display) for most kinases; HEK-293 for the rest
The procedure, abridged: as §1

Assay [3] has as its target T3, kinases (Homo sapiens, UniProt P17948).
T3 construct: purchased Eurofins/DiscoveRx; host or cells: E. coli BL21-derived host (T7 phage display) for most kinases; HEK-293 for the rest
The procedure, abridged:
as §1

Assay [4] deals with T4, kinases (Homo sapiens, UniProt P00519, F317L).
T4 construct: purchased Eurofins/DiscoveRx; host or cells: E. coli BL21-derived host (T7 phage display) for most kinases; HEK-293 for the rest
T4 sequence (P00519 whole entry F317L): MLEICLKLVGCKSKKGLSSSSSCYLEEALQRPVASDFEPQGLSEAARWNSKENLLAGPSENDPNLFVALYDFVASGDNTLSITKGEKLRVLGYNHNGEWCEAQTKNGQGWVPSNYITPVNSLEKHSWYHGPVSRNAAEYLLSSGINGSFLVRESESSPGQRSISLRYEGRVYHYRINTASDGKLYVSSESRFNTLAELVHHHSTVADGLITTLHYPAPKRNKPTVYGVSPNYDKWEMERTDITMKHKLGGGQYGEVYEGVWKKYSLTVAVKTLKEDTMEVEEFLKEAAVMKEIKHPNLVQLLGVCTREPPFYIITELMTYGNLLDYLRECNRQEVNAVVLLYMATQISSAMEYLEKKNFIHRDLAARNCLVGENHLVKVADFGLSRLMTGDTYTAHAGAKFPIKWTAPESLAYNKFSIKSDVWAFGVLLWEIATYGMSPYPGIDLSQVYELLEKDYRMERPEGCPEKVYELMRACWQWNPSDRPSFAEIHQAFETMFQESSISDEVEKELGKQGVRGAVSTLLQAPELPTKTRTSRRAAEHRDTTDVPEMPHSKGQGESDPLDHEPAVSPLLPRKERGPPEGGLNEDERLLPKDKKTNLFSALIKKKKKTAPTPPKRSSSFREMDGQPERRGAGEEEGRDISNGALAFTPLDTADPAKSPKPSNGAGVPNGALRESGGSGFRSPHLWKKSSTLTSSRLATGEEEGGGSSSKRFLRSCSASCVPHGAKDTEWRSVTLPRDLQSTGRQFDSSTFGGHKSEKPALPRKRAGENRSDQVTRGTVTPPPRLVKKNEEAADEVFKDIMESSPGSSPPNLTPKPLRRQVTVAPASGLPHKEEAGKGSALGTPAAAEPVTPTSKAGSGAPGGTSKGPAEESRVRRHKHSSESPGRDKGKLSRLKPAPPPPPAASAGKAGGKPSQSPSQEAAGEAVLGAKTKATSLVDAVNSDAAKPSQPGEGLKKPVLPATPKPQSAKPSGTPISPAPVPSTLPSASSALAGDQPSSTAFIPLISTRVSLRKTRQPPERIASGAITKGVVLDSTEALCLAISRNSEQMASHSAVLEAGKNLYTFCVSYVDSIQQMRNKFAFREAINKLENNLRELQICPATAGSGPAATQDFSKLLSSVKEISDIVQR
An outline of the steps:
as §1

The target of assay [5] is T5, kinases (Homo sapiens, UniProt P00533, DEL746-750).
T5 construct: purchased Eurofins/DiscoveRx; host or cells: E. coli BL21-derived host (T7 phage display) for most kinases; HEK-293 for the rest
An outline of the steps: as §1

In assay [6] the target is T6, kinases (Homo sapiens, UniProt P36888, D835Y).
T6 construct: purchased Eurofins/DiscoveRx; host or cells: E. coli BL21-derived host (T7 phage display) for most kinases; HEK-293 for the rest
T6 sequence (P36888 27-993 D835Y): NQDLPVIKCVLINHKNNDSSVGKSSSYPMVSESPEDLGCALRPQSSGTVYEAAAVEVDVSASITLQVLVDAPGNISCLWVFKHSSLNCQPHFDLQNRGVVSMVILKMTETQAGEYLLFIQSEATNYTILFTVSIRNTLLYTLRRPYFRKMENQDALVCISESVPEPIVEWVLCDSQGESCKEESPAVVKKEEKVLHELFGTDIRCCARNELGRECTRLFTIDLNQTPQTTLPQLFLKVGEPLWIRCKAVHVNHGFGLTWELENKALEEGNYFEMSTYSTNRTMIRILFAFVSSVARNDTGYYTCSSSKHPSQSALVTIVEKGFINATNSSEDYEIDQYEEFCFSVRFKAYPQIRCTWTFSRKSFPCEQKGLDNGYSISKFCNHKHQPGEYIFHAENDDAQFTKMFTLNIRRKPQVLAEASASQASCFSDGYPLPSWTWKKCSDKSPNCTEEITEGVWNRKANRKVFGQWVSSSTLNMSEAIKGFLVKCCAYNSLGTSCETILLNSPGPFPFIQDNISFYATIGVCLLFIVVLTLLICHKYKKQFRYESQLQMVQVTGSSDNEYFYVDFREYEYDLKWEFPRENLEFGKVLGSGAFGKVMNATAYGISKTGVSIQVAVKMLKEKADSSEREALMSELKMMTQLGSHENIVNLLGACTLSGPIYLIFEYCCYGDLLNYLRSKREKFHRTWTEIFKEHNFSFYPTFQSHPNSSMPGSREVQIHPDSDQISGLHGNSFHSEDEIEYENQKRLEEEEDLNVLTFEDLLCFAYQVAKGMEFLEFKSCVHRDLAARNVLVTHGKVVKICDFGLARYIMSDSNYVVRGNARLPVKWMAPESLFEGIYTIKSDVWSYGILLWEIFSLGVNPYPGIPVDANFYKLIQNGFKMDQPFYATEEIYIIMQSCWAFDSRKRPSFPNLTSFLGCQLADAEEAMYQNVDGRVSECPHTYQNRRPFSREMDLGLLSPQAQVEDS
An outline of the steps: as §1

Assay [7] deals with T7, kinases (Homo sapiens, UniProt P10721, V559D).
T7 construct: purchased Eurofins/DiscoveRx; host or cells: E. coli BL21-derived host (T7 phage display) for most kinases; HEK-293 for the rest
T7 sequence (P10721 26-976 V559D): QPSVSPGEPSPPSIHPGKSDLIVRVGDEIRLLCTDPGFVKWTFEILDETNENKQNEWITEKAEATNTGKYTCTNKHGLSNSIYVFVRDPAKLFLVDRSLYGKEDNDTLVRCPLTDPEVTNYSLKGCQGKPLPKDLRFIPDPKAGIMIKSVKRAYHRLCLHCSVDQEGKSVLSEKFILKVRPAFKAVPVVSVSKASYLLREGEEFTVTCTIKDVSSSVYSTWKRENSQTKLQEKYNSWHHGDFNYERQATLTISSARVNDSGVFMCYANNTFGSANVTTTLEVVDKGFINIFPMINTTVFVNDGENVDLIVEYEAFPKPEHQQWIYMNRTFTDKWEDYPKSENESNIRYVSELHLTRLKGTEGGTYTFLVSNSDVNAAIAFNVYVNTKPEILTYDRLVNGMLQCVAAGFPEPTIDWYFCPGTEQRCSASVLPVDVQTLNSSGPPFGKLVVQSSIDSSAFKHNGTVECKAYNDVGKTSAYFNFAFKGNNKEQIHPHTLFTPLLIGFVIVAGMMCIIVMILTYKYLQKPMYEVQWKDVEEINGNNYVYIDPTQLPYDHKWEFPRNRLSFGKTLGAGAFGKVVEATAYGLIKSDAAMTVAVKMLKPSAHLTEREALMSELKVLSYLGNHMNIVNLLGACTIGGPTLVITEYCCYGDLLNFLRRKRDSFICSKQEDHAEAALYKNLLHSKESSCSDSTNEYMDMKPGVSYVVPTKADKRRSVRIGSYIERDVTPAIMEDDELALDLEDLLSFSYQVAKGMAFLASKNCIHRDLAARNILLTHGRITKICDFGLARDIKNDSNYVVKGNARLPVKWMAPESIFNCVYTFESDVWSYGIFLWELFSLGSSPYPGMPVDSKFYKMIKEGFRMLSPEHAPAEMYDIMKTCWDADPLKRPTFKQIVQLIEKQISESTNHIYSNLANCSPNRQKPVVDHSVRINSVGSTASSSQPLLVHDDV
The procedure, abridged: as §1

Setting [8] is: 1 μM; target EGFR(L858R, T790M).
Setting [9] is: 1 μM; target ABL1(F317L)-nonphosphorylated.
Where [10] appears, read: 1 μM; target ABL1(F317L)-phosphorylated.
[11] abbreviates: 1 μM; target EGFR(E746-A750del).
Where [12] appears, read: 1 μM; ABL1(F317L)-nonphosphorylated.
Setting [13] is: 1 μM; ABL1(F317L)-phosphorylated.

Structures are written as SMILES.

T1 sequence (P10721 26-976 D816H): as the sequence (P10721 26-976 V559D) above, with D534V, D791H counted along it
T3 sequence (P17948 27-1338): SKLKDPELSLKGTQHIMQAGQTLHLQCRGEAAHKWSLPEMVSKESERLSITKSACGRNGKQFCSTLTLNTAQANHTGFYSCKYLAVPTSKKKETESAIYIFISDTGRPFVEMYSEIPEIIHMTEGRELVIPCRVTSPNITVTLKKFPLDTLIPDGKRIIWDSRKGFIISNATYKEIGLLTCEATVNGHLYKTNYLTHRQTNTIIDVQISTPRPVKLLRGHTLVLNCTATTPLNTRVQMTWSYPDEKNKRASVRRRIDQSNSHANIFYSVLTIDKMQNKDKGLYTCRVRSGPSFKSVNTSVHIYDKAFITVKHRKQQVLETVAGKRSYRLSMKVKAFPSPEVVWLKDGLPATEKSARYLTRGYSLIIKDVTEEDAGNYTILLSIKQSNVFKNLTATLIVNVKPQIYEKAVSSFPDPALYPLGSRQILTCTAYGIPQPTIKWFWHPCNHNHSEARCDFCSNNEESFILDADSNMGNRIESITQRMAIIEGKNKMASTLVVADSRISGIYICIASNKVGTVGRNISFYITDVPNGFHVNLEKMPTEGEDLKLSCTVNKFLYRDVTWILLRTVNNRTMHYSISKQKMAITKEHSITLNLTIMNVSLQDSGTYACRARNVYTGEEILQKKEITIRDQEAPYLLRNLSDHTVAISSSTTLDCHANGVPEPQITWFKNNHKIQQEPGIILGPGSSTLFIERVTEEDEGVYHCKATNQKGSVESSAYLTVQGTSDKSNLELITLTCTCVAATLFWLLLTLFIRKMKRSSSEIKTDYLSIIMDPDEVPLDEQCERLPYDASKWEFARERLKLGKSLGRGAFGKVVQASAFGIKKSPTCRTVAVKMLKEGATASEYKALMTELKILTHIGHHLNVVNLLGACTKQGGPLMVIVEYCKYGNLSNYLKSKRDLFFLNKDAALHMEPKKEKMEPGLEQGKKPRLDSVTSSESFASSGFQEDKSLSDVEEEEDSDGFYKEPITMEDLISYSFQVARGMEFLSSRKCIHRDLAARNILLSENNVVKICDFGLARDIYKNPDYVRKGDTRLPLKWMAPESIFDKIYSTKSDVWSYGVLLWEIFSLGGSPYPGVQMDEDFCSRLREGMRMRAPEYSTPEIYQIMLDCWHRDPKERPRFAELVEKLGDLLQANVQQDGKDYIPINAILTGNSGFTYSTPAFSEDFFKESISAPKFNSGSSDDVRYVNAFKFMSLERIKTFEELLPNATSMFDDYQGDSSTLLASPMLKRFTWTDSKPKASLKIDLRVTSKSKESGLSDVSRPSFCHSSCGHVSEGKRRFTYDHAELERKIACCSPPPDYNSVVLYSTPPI

On to `Cc1cc2c([nH]1)/C=C1\C(=O)Nc3cc(Cl)c(cc31)SCCOCCN(C)C2=O` [Ex. 169, [16a(17)Z]-19-chloro-5-methyl-6,7,9,10-tetrahydro-1H-12,14-(ethanediylidene)dipyrrolo[3,4-g:2′,3′-j][1,4,13]oxathiazacyclopentadecine-4,16(5H,15H)-dione], for which the “% Ctrl, KIT(D816H)” value in assay [1] (1 μM; target KIT(D816H)) came out at 8.3 % Ctrl. Also, the “% Ctrl, EGFR(L858R, T790M)” value in assay [2] (setting [8]) was 37 % Ctrl. Also, the “% Ctrl, FLT1” value in assay [3] (1 μM; target FLT1) is listed as 12 % Ctrl. Further, the “% Ctrl, ABL1(F317L)-nonphosphorylated” value in assay [4] (setting [9]) was 0.6 % Ctrl. Also, in assay [4] (setting [10]), the “% Ctrl, ABL1(F317L)-phosphorylated” value was 0.1 % Ctrl. Moreover, the “% Ctrl, EGFR(E746-A750del)” value in assay [5] (setting [11]) came out at 9.9 % Ctrl. Further, the “% Ctrl, FLT3(D835Y)” value in assay [6] (1 μM; target FLT3(D835Y)) was determined as 1.6 % Ctrl. In addition, in assay [7] (1 μM; target KIT(V559D)), the “% Ctrl, KIT(V559D)” value amounted to 1.2 % Ctrl.
As to `Cc1cc2c([nH]1)/C=C1\C(=O)Nc3cc(Cl)c(cc31)OCCO[C@@H](C(=O)NC1CCNCC1)CN(C)C2=O` [Ex. 134, [7R,16a(17)Z]-19-chloro-2,5-dimethyl-4,16-dioxo-N-(piperidin-4-yl)-4,5,6,7,9,10,15,16-octahydro-1H-12,14-(ethaneidylidene)dipyrrolo[3,2-i:3′,4′-l][1,4,7]dioxazacyclopentadecine-7-carboxamide], in assay [1] (1 μM; KIT(D816H)), the “% Ctrl, KIT(D816H)” value amounted to 56 % Ctrl. In addition, in assay [2] (1 μM; EGFR(L858R, T790M)), the “% Ctrl, EGFR(L858R, T790M)” value was determined as 92 % Ctrl. Further, the “% Ctrl, FLT1” value in assay [3] (1 μM; FLT1) is recorded as 97 % Ctrl. For the same molecule, the “% Ctrl, ABL1(F317L)-nonphosphorylated” value in assay [4] (setting [12]) turned out to be 62 % Ctrl. Besides, the “% Ctrl, ABL1(F317L)-phosphorylated” value in assay [4] (setting [13]) was 57 % Ctrl. Besides, the “% Ctrl, EGFR(E746-A750del)” value in assay [5] (1 μM; EGFR(E746-A750del)) is given as 89 % Ctrl. In addition, the “% Ctrl, FLT3(D835Y)” value in assay [6] (1 μM; FLT3(D835Y)) is given as 10 % Ctrl. Also, in assay [7] (1 μM; KIT(V559D)), the “% Ctrl, KIT(V559D)” value is given as 43 % Ctrl.
As for `Cc1cc2c([nH]1)/C=C1\C(=O)Nc3cc(Cl)c(cc31)OCCO[C@@H](C(=O)NC1CNC1)CN(C)C2=O` [Ex. 133, [7R,16a(17)Z]-N-(azetidin-3-yl)-19-chloro-2,5-dimethyl-4,16-dioxo-4,5,6,7,9,10,15,16-octahydro-1H-12,14-(ethanediylidene)dipyrrolo[3,2-i:3′,4′-l][1,4,7]dioxazacyclopentadecine-7-carboxamide], the “% Ctrl, KIT(D816H)” value in assay [1] (1 μM; KIT(D816H)) is 43 % Ctrl. Besides, in assay [2] (1 μM; EGFR(L858R, T790M)), the “% Ctrl, EGFR(L858R, T790M)” value was found to be 95 % Ctrl. Moreover, in assay [3] (1 μM; FLT1), the “% Ctrl, FLT1” value is given as 89 % Ctrl. In assay [4] (setting [12]), the “% Ctrl, ABL1(F317L)-nonphosphorylated” value is given as 77 % Ctrl. Further, the “% Ctrl, ABL1(F317L)-phosphorylated” value in assay [4] (setting [13]) worked out at 88 % Ctrl. Besides, the “% Ctrl, EGFR(E746-A750del)” value in assay [5] (1 μM; EGFR(E746-A750del)) is reported as 100 % Ctrl. For the same molecule, the “% Ctrl, FLT3(D835Y)” value in assay [6] (1 μM; FLT3(D835Y)) is given as 3.1 % Ctrl. Moreover, in assay [7] (1 μM; KIT(V559D)), the “% Ctrl, KIT(V559D)” value is recorded as 47 % Ctrl.
On to `Cc1cc2c([nH]1)/C=C1\C(=O)Nc3ccc(cc31)-c1cnn(C)c1OCCCN(C)C2=O` [Ex. 166, [3a(4)Z]-9,14-dimethyl-9,10,11,12-tetrahydro-14H-1,17-(ethanediylidene)pyrazolo[4,3-n]dipyrrolo[3,2-g:3′,4′-j][1,5]oxazacyclopentadecine-3,8(2H,5H)-dione], for which the “% Ctrl, KIT(D816H)” value in assay [1] (1 μM; target KIT(D816H)) amounted to 10 % Ctrl. Further, the “% Ctrl, EGFR(L858R, T790M)” value in assay [2] (setting [8]) worked out at 8.1 % Ctrl. In assay [3] (1 μM; target FLT1), the “% Ctrl, FLT1” value worked out at 79 % Ctrl. Further, the “% Ctrl, ABL1(F317L)-nonphosphorylated” value in assay [4] (setting [9]) was determined as 41 % Ctrl. In assay [4] (setting [10]), the “% Ctrl, ABL1(F317L)-phosphorylated” value amounted to 8.7 % Ctrl. Also, the “% Ctrl, EGFR(E746-A750del)” value in assay [5] (setting [11]) is on record as 84 % Ctrl. In assay [6] (1 μM; target FLT3(D835Y)), the “% Ctrl, FLT3(D835Y)” value turned out to be 1.9 % Ctrl. In assay [7] (1 μM; target KIT(V559D)), the “% Ctrl, KIT(V559D)” value came out at 54 % Ctrl.
In the case of `Cc1cc2c([nH]1)/C=C1\C(=O)Nc3ccc(cc31)-c1c(C)nn(C)c1COCCN(C)C2=O` [Ex. 146, [3a(4)Z]-6,9,14,16-tetramethyl-10,11,13,14-tetrahydro-2H-1,17-(ethanediylidene)pyrazolo[4,3-m]dipyrrolo[3,2-f:3′,4′-i][1,4]oxazacyclopentadecine-3,8(5H,9H)-dione], in assay [1] (target KIT(D816H); 1 μM), the “% Ctrl, KIT(D816H)” value worked out at 100 % Ctrl. Further, the “% Ctrl, EGFR(L858R, T790M)” value in assay [2] (target EGFR(L858R, T790M); 1 μM) is on record as 43 % Ctrl. Besides, in assay [3] (target FLT1; 1 μM), the “% Ctrl, FLT1” value is 100 % Ctrl. Also, the “% Ctrl, ABL1(F317L)-nonphosphorylated” value in assay [4] (target ABL1(F317L)-nonphosphorylated; 1 μM) is 89 % Ctrl. For the same molecule, the “% Ctrl, ABL1(F317L)-phosphorylated” value in assay [4] (target ABL1(F317L)-phosphorylated; 1 μM) turned out to be 89 % Ctrl. Moreover, the “% Ctrl, EGFR(E746-A750del)” value in assay [5] (target EGFR(E746-A750del); 1 μM) is 73 % Ctrl. The “% Ctrl, FLT3(D835Y)” value in assay [6] (target FLT3(D835Y); 1 μM) was determined as 22 % Ctrl. Moreover, the “% Ctrl, KIT(V559D)” value in assay [7] (target KIT(V559D); 1 μM) was 75 % Ctrl.
